test: gradient 5% acetonitrile 3 min, to 50% in 2 min, to 85% in 15 min, held 3 min, 100 µL/min; details: column: Zorbax Extend-C18 2.1 x 50 mm; eluents: water / acetonitrile, 0.1% formic acid
Procedure, shortened: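 The system's dead and dwell volumes were 40 μL and 900 μL, with a Zorbax Extend-C18 column (2.1 × 50 mm, 1.8 μm) run at 100 μL/min in water and acetonitrile containing 0.1% formic acid each. Pure standards were analyzed in mixtures of ~100 molecules by HPLC–quadrupole time-of-flight mass spectrometry in positive and negative ionization mode. Retention time was assigned from computationally picked, manually inspected adduct peaks.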

Q: With `COc1ccccc1CNC1=NCCNC12CCN(S(=O)(=O)c1cc(C)ccc1C)CC2` as the compound, how does the RP-LC retention time read?
A: The RP-LC retention time was 775 s.

Q: For `CC(C)c1nnc(NC(=O)C2CCN(C(=O)c3ccc(F)cc3)CC2)s1`, which RP-LC retention time is on record?
A: Its RP-LC retention time is 727 s.

Q: With `COc1cccc(CNC(=O)NCCC2CCN(S(=O)(=O)c3ccc(F)cc3)CC2)c1` as the compound, how does the RP-LC retention time read?
A: Its RP-LC retention time is 842 s.

Q: For `Cc1ccc(-c2nc(NC(=O)C(C)C)sc2C)cc1`, which RP-LC retention time is on record?
A: Its RP-LC retention time is 1010 s.

Q: For `COc1ccc2c(c1)C1(CCN(C(=O)c3ccc(C)cc3)C1)C(=O)N2C` (stereo not given), which RP-LC retention time is on record?
A: The RP-LC retention time was 785 s.

Q: Which RP-LC retention time does the source give for `COC(=O)c1cc(OCC(=O)NC2CCCCC2)c2cc(OC)c(OC)cc2n1` here?
A: Its RP-LC retention time is 725 s.

Q: For `Cc1cccc(Cn2nc3ccc(S(=O)(=O)N4CCOCC4)cn3c2=O)c1`, which RP-LC retention time is on record?
A: The RP-LC retention time was 826 s.

Q: With `CC(C)CCNC(=O)C1(C)CN(S(=O)(=O)c2ccccc2)CC(=O)N1CCCc1ccccc1` (stereo not given) as the compound, how does the RP-LC retention time read?
A: Its RP-LC retention time is 1050 s.

Q: For `Cc1ccc(C)c(CN2CCC(CNC(=O)c3c(C)oc4c3C3=NCCN3C=N4)CC2)c1`, which RP-LC retention time is on record?
A: Its RP-LC retention time is 561 s.

Q: Which RP-LC retention time does the source give for `COCC1CN(C(=O)CN2CCCC2=O)CCC1(F)F` (stereo not given) here?
A: The RP-LC retention time was 598 s.

Q: Which RP-LC retention time does the source give for `Cc1cc(C)cc(NC(=O)CN2C(=O)CC(C)S(=O)(=O)c3ccccc32)c1` (stereo not given) here?
A: Its RP-LC retention time is 846 s.

Q: With `CCC(=O)N1c2ccc(S(=O)(=O)N3CCCCC3)cc2CC1C(=O)NCc1ccccc1C` (stereo not given) as the compound, how does the RP-LC retention time read?
A: The RP-LC retention time was 916 s.

Q: With `CCCCC(C=O)NC(=O)[C@H](CC(C)C)NC(=O)OCc1ccccc1` (stereo not given in full) as the compound, how does the RP-LC retention time read?
A: Its RP-LC retention time is 970 s.

Q: With `O=S(=O)(c1cccc(F)c1)N1CCC(c2noc(-c3ccc(F)cc3)n2)CC1` as the compound, how does the RP-LC retention time read?
A: The RP-LC retention time was 1110 s.

Q: For `COc1ccc(NC(=O)CN2CCc3[nH]c4c(C)ccc(F)c4c(=O)c3C2)cc1OC`, which RP-LC retention time is on record?
A: The RP-LC retention time was 1050 s.

Q: With `Cc1cccc2nnc(N3CCCC(C(=O)Nc4ccc5c(c4)OCO5)C3)n12` (stereo not given) as the compound, how does the RP-LC retention time read?
A: Its RP-LC retention time is 664 s.

Q: For `COC(=O)C(C)n1nc2nc(Nc3cc(C)cc(C)c3)cc(C)n2c1=O` (stereo not given), which RP-LC retention time is on record?
A: Its RP-LC retention time is 1160 s.

Q: For `COc1ccc2[nH]cc(CCNC(=O)c3ccccc3F)c2c1`, which RP-LC retention time is on record?
A: The RP-LC retention time was 789 s.

Q: Which RP-LC retention time does the source give for `CC(C)(C)NC(=O)N1CC(N(Cc2ccncc2)S(C)(=O)=O)C1` here?
A: Its RP-LC retention time is 573 s.

Q: With `N#Cc1ccc(CN2C[C@@H](CO)[C@H](c3ccccn3)C2)cc1` as the compound, how does the RP-LC retention time read?
A: Its RP-LC retention time is 569 s.

Q: For `Cc1ccc(C)c(-c2nc3ccccc3c(C(=O)N3CCN(c4ncccn4)CC3)c2C)c1`, which RP-LC retention time is on record?
A: Its RP-LC retention time is 903 s.

Q: For `COc1ccccc1OCCC1CCN(S(=O)(=O)Cc2ccccc2)C1` (stereo not given), which RP-LC retention time is on record?
A: Its RP-LC retention time is 692 s.

Q: With `CCc1nnc(-c2ccc3ccn(CC(=O)N4CCN(c5ccc(F)cc5)CC4)c3c2)o1` as the compound, how does the RP-LC retention time read?
A: The RP-LC retention time was 878 s.

Q: For `O=C(NCC1CC1)c1cn(-c2ncccc2-c2nc(-c3ccccc3)no2)cn1`, which RP-LC retention time is on record?
A: The RP-LC retention time was 848 s.

Q: For `COc1ccc(SCC(=O)Nc2c3c(nn2C)CCC3)cc1`, which RP-LC retention time is on record?
A: Its RP-LC retention time is 687 s.

Q: For `O=C(c1ccc(Cl)s1)N1CCN(c2ncnc3c2CCC3)CC1`, which RP-LC retention time is on record?
A: Its RP-LC retention time is 638 s.

Q: For `CCCNC(=O)C1CCN(S(=O)(=O)c2cc(C(=O)N3CCCCCC3)cs2)CC1`, which RP-LC retention time is on record?
A: Its RP-LC retention time is 783 s.

Q: Which RP-LC retention time does the source give for `Cc1cc(C(=O)NCc2cccnc2)c2cc(Br)ccc2n1` here?
A: The RP-LC retention time was 588 s.

Q: Which RP-LC retention time does the source give for `O=S(=O)(c1ccc2nc(N3CCN(c4ccccc4)CC3)ccc2c1)N1CCCCC1` here?
A: The RP-LC retention time was 1030 s.

Q: With `CC(C)n1cnc(S(=O)(=O)N2CCC(C(=O)N3CCN(c4cccc(Cl)c4)CC3)CC2)c1` as the compound, how does the RP-LC retention time read?
A: Its RP-LC retention time is 876 s.

Q: With `Cc1nc2cc(-c3noc(Cc4cccc(C(F)(F)F)c4)n3)ccc2o1` as the compound, how does the RP-LC retention time read?
A: The RP-LC retention time was 1080 s.

Q: For `Cc1ccc(NC(=O)Cn2c(C)nc3onc(C)c3c2=O)c(Cl)c1`, which RP-LC retention time is on record?
A: The RP-LC retention time was 835 s.

Q: With `COCc1cn(C2CN(C(=O)c3ccc(OC)nc3)C2)nn1` as the compound, how does the RP-LC retention time read?
A: Its RP-LC retention time is 610 s.

Q: With `Cc1ccc(-c2cnn3c(N4CCN(c5ccccn5)CC4)cc(C)nc23)cc1` as the compound, how does the RP-LC retention time read?
A: Its RP-LC retention time is 751 s.

Q: For `CC1CCN(c2nc(-c3ccc(Cl)cc3)nc3ccccc23)CC1`, which RP-LC retention time is on record?
A: Its RP-LC retention time is 947 s.

Q: With `CCOc1ccc(N2C=C(C(=O)OC)S(=O)(=O)c3cc(F)ccc32)cc1` as the compound, how does the RP-LC retention time read?
A: Its RP-LC retention time is 924 s.

Q: For `O=C(Cn1ccn2nc(-c3ccc(F)cc3)c(CO)c2c1=O)Nc1ccc(F)cc1F`, which RP-LC retention time is on record?
A: Its RP-LC retention time is 821 s.

Q: With `Cc1nnc2n1CCN(C(=O)c1ccc(OC(F)(F)F)cc1)C2` as the compound, how does the RP-LC retention time read?
A: The RP-LC retention time was 606 s.

Q: With `O=C(NCCCN1CCCC1=O)c1nc2ccccn2c1-c1ccc(Cl)cc1` as the compound, how does the RP-LC retention time read?
A: Its RP-LC retention time is 690 s.

Q: For `COc1ccc(CNC(=O)c2cc(-c3ccncc3)cn2C)cc1OC`, which RP-LC retention time is on record?
A: The RP-LC retention time was 605 s.

Q: With `CCOc1nc2c(c(C)nn2-c2cccc(C)c2)c(C)c1CCC(=O)NCCc1c[nH]c2ccccc12` as the compound, how does the RP-LC retention time read?
A: Its RP-LC retention time is 1260 s.

Q: Which RP-LC retention time does the source give for `O=C(NCCCN1CCCCC1)C1CCN(c2cnn(Cc3ccccc3)c(=O)c2)CC1` here?
A: The RP-LC retention time was 606 s.

Q: With `COc1ccc(S(=O)(=O)Cc2nc(-c3ccc(Cl)cc3)no2)cc1` as the compound, how does the RP-LC retention time read?
A: Its RP-LC retention time is 1030 s.

Q: Which RP-LC retention time does the source give for `Cc1cccc(OCc2nc(-c3cccc(-c4ccn[nH]4)c3)no2)c1` here?
A: Its RP-LC retention time is 999 s.

Q: For `CCOc1ccccc1NC(=O)N1CC(n2ccnc2)C1`, which RP-LC retention time is on record?
A: Its RP-LC retention time is 594 s.
